This is an account of results in patent publication US20100254942A1, “HEPATITIS C ANTIVIRAL COMPOSITIONS AND METHODS” (BIOTRON LIMITED, priority 2007, published 2010).

SMILES strings stand for the structures. Entries after “also recorded” stand apart in the source; their conditions may differ. Where two headings read alike, the source gives them in different places.

The test system of data set [1] is Madin-Darby bovine kidney (MDBK) cells. Briefly: Drug cytotoxicity in uninfected MDBK cells. In kind it is cell-based. Particulars: uninfected MDBK cells. From the text:
(§1) A virus-induced cytopathogenic effects (CPE)-inhibition assay procedure was employed to evaluate compounds for antiviral activity against bovine viral diarrhea virus (BVDV) strain NADL, in Madin-Darby bovine kidney (MDBK) cells passaged in T-75 flasks (1, 2). Antiviral assays were designed to test six half-log concentrations of each compound in triplicate against the challenge virus. Cell controls (CC) containing medium alone, virus-infected cell controls (VC) containing medium and virus, drug cytotoxicity controls containing medium and each drug concentration, reagent controls containing culture medium only (no cells), and drug colorimetric controls containing drug and medium (no cells) are run simultaneously with the test samples. Human interferon-α 2b was used as a positive control compound. On the day preceding the assay, the cells were trypsinized, pelleted, counted and resuspended at 1×10^4/well in tissue culture medium in 96-well flat bottom tissue culture plates in a volume of 100 μl per well. One day following plating of cells, the wells were washed and the medium was replaced with complete medium (2% serum) containing various concentrations of test compound diluted in medium in a half-log series. A pre-titered aliquot of virus was removed from the freezer (−80° C.) just before each experiment. The virus was diluted into tissue culture medium such that the amount of virus added to each well would give complete cell killing at 6-7 days post-infection. The plates were incubated at 37° C. in a humidified atmosphere containing 5% CO2 until maximum CPE is observed in the untreated virus control cultures (˜day 7) Inhibition of CPE by the compound was determined using Cell Titer 96 (Promega). A colorimetric method for determining the number of viable cells was used. A computer program was utilized to calculate the percent of CPE reduction of the virus-infected wells and the percentage cell viability of uninfected drug control wells. […] A therapeutic (selectivity) index (TI50) for each active compound was determined by dividing the TC50 by the IC50.
(§2) Drug cytotoxicity was measured separately in uninfected cells. Eleven BIT compounds were tested in the first experiment in which the compounds were added to the cells just prior to infection and were maintained throughout the entire experiment. Two of them, BIT225 and BIT314 returned sub-micromolar IC50 values (see Table 2 below).

The target in data set [2] is T1, HCV p7 ion channel protein (Hepatitis C virus genotype 1a, UniProt P27958).
T1 construct: codons were optimised for expression of the p7 protein in E. coli; expressed in transfected cells; host or cells: E. coli carrying plasmid pPLp7 (pPL451 backbone, temperature-inducible)
T1 sequence (P27958 747-809): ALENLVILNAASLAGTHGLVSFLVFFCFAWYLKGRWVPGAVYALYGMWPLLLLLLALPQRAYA
Briefly: Bacterial bioassay: growth of E. coli expressing HCV p7. In kind it is cell-based. The arrangement: scale not given here. The conditions noted are these: cumulative averaged scores; result above zero indicates potential anti-viral activity. From the text: The bacterial bioassay method used in the present example to test the anti-viral activity of the compounds against different viral targets was described in detail in PCT/2004/000866, incorporated in its entirety herein by reference. This assay is used in conjunction with the GBV-B and BVDV assays described below, to ensure that all active compounds are identified, some of which are active in one or the other of the assays, while some compounds may be active in both assays.
Briefly, the bacterial bio-assay for screening potential anti-HCV compounds is based on the HCV p7 ion channel protein. p7 is a small membrane protein encoded by HCV, which has a functional activity supporting viral growth and/or replication.
The p7-encoding synthetic cDNA fragment cDp7.coli, in which codons were optimised for expression of the p7 protein in E. coli, was cloned into the expression plasmid pPL451, creating the vector pPLp7, in which p7 expression is temperature inducible, as described in detail in PCT/2004/000866. Inhibition of the growth of E. coli cells expressing p7 at 37° C. was observed as an indicator of p7 ion channel function dissipating the normal Na+gradient maintained by the bacterial cells. Halos of growth around a particular compound application site indicate that the compound has inhibited expression of the p7 ion channel activity that prevents growth in the absence of the compound.
The positive controls were used in this assay to ensure that the assay was working rather than for comparison of relative activities of the compounds.

Another data set concerns GBV-B. Kind of data set: GBV-B replication in primary marmoset hepatocytes (viral RNA by real-time RT-PCR). In kind it is cell-based. The text has this: GBV-B is the most closely related flavivirus to HCV, sharing 27-33% nucleotide sequence identity and 28% amino acid similarity over the complete polypeptide sequence. This virus represents an excellent surrogate system for HCV because it infects small New World primates and replicates efficiently in vitro in primary marmoset hepatocyte (PMH) cultures. The GBV-B homologue of HCV p7 is called p13. It is shown herein that a synthetic peptide corresponding to the two C-terminal transmembrane helices of p13 (which share the greatest homology to p7) forms a cation selective ion channel that, like the p7 channel, is blocked by amantadine (Premkumar et al., 2006). […] These observations confirm that the two homologous channels share similar, but not identical, structural features.
Selected BIT compounds—identified by bacterial assay screening for inhibitors of HCV p7—were tested for ability to inhibit GBV-B replication in primary marmoset hepatocytes (see FIG. 1). The hepatocytes were inoculated 3-days after plating with 10× TCID50 of GBV-B positive marmoset serum. […] was adsorbed for two hours, and then the cells were washed three times and cultured for two days in fresh serum-free medium (SFM) supplemented with hormones and growth factors. Virus released to the culture supernatant was measured as viral RNA copy number, as determined by real-time RT-PCR. […]
A general note: Quantitative PCR measures a nucleic acid by following its amplification.

Data set [3] relates to bovine viral diarrhea virus (BVDV) strain NADL. Kind of data set: BVDV CPE-inhibition assay in MDBK cells. Type of data set: cell-based. The conditions noted are these: for EC50: read-out: EC50. On the procedure: The antiviral evaluation of selected BIT compounds against BVDV was outsourced to Southern Research Institute (SRI), Fredrick Md. USA. A simple cytoprotection format is used in which the antiviral efficacy of the compounds is assessed by their ability to reduce the cytopathic effect of BVDV infection in Madin-Darby bovine kidney cells (Buckwold et al., 2003)
as §1, §2

Data set [4] shares this test system. The conditions noted are these: well known from the literature; cited from earlier work.
In a further data set the target is T2, GBV-B p13 ion channel (Hepatitis GB virus B, UniProt Q69422).
T2 construct: a synthetic peptide corresponding to the two C-terminal transmembrane helices of p13 (which share the greatest homology to p7); host or cells: chemically synthesised peptide
T2 sequence (Q69422 670-732): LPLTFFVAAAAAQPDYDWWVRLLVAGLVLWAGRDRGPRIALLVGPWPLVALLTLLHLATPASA
The conditions noted are these: synthetic peptide of two C-terminal transmembrane helices of p13; Premkumar et al., 2006; cited from earlier work.

A word on the IC50: it is the concentration that gives 50% inhibition. In general, EC50 refers to the midpoint of the concentration-response curve. By inhibition is commonly meant the change of the read-out against control, counted positive when it falls. As for `Cn1cc(-c2cccc3cc(C(=O)NC(=N)N)ccc23)cn1` [BIT225, 5-(1-methylpyrazol-4-yl)2-naphthoylguanidine], the TC50 in data set [1] was 11600 nM. In addition, the “Average Bacterial Assay Score HCV p7” value in data set [2] was 1.20. Further, in the data set on GBV-B (cells pre-treated with 20 μM), the “Virus in the culture supernatant (viral RNA copy number)” value was “no virus was detected”. Besides, in the data set with GBV-B (post-treatment versus pre-treatment), the “Efficacy when compounds were added post-inoculation” value is “reduced somewhat”. In addition, the IC50 in data set [3] (BVDV in MDBK cells, compound added just prior to infection and maintained, N/A = not achieved, read-out: IC50) stood at 530 nM; in data set [3] (Bovine viral diarrhea virus isolates and strains, MDBK, Table 2a, read-out: BVDV IC50), 1270 nM; in data set [3] (Bovine viral diarrhea virus isolates and strains, MDBK, subsequent repeat assay, read-out: IC50), 330 nM. In addition, the EC50 came to 314 nM in data set [3] (Bovine viral diarrhea virus isolates and strains, MDBK, drug tested individually against BVDV); 92 nM in data set [3] (Bovine viral diarrhea virus isolates and strains, MDBK, in the presence of 5 IU/ml IFNα, Hill slope constrained); 149 nM in data set [3] (Bovine viral diarrhea virus isolates and strains, MDBK, in the presence of 5 IU/ml IFNα, variable Hill slope); 71 nM in data set [3] (Bovine viral diarrhea virus isolates and strains, MDBK, in the presence of 10 IU/ml IFNα, Hill slope constrained); 125 nM in data set [3] (Bovine viral diarrhea virus isolates and strains, MDBK, in the presence of 10 IU/ml IFNα, variable Hill slope). In data set [3] (Bovine viral diarrhea virus isolates and strains, MDBK, 31 nM BIT225 alone), this compound returned an inhibition at 0.031 µM of roughly 5%. The “IC50 values (in words)” value in data set [3] (first experiment, Table 2) was “sub-micromolar”.

In the case of `NC(=O)c1ncn([C@@H]2O[C@H](CO)[C@@H](O)[C@H]2O)n1` [Ribavirin, reference compound], the “activity against BVDV on its own” value in data set [4] is reported as “very little activity”. Further, in data set [3] (1.25 μg/ml Ribavirin alone), the antiviral activity result is listed as “no antiviral activity”. Moreover, the “Antiviral activity on its own” value in data set [3] (alone, range up to 20 μg/ml) is listed as “only very little antiviral activity was detected; also recorded: no antiviral activity”.

On to `NC(N)=NC(=O)c1nc(Cl)c(N2CCCCCC2)nc1N` [HMA], for which the “effect on p13 ion channel” value on GBV-B p13 ion channel is “does not inhibit”.

Regarding `NC12CC3CC(CC(C3)C1)C2` [amantadine], the “effect on p13 ion channel” value on GBV-B p13 ion channel is recorded as “blocked”.
